Tests used:
Assay type in all cases: functional
[1] = tested on: 786-0; test: Cytotoxicity against human 786-0 cells assessed as cell growth at 1 uM incubated for 48 hrs by sulforhodamine B assay relative to control; details: 786-0, 48 h, read-out: Activity
[2] = tested on: SK-MEL-5; test: Cytotoxicity against human SK-MEL-5 cells assessed as cell growth at 1 uM incubated for 48 hrs by sulforhodamine B assay relative to control; details: SK-MEL-5, 48 h, read-out: Activity
[3] = tested on: SF-295; test: Cytotoxicity against human SF295 cells incubated for 48 hrs by sulforhodamine B assay; details: SF-295, 48 h
[4] = tested on: RPMI-8226; test: Cytotoxicity against human RPMI8226 cells assessed as cell growth at 100 uM incubated for 48 hrs by sulforhodamine B assay relative to control; details: RPMI-8226, 48 h, read-out: Activity
[5] = tested on: SR; test: Cytotoxicity against human SR cells assessed as cell growth at 0.01 uM incubated for 48 hrs by sulforhodamine B assay relative to control; details: read-out: Activity
[6] = tested on: HCT-116; test: Cytotoxicity against human HCT116 cells assessed as cell growth at 0.01 uM incubated for 48 hrs by sulforhodamine B assay relative to control; details: HCT-116, 48 h, read-out: Activity
[7] = tested on: UO-31; test: Cytotoxicity against human UO31 cells assessed as cell growth at 10 uM incubated for 48 hrs by sulforhodamine B assay relative to control; details: UO-31, 48 h, read-out: Activity
[8] = tested on: SF-539; test: Cytotoxicity against human SF539 cells incubated for 48 hrs by sulforhodamine B assay; details: SF-539, 48 h
[9] = tested on: Malme-3M; test: Cytotoxicity against human MALME-3M cells incubated for 48 hrs by sulforhodamine B assay
[10] = tested on: A549; test: Cytotoxicity against human A549/ATCC cells assessed as cell growth at 100 uM incubated for 48 hrs by sulforhodamine B assay relative to control; details: A549, 48 h, read-out: Activity
[11] = tested on: SK-MEL-5; test: Cytotoxicity against human SK-MEL-5 cells assessed as cell growth at 0.01 uM incubated for 48 hrs by sulforhodamine B assay relative to control; details: SK-MEL-5, 48 h, read-out: Activity
[12] = tested on: NCI-H522; test: Cytotoxicity against human NCI-H522 cells assessed as cell growth at 10 uM incubated for 48 hrs by sulforhodamine B assay relative to control; details: NCI-H522, 48 h, read-out: Activity
[13] = tested on: OVCAR-4; test: Cytotoxicity against human OVCAR4 cells assessed as cell growth at 1 uM incubated for 48 hrs by sulforhodamine B assay relative to control; details: OVCAR-4, 48 h, read-out: Activity
[14] = tested on: EKVX; test: Cytotoxicity against human EKVX cells assessed as cell growth at 1 uM incubated for 48 hrs by sulforhodamine B assay relative to control; details: read-out: Activity
[15] = tested on: RXF 393; test: Cytotoxicity against human RXF393 cells assessed as cell growth at 10 uM incubated for 48 hrs by sulforhodamine B assay relative to control; details: RXF 393, 48 h, read-out: Activity
[16] = tested on: SNB-75; test: Cytotoxicity against human SNB75 cells incubated for 48 hrs by sulforhodamine B assay; details: SNB-75, 48 h
[17] = tested on: UO-31; test: Cytotoxicity against human UO31 cells assessed as cell growth at 1 uM incubated for 48 hrs by sulforhodamine B assay relative to control; details: UO-31, 48 h, read-out: Activity
[18] = tested on: NCI-H226; test: Cytotoxicity against human NCI-H226 cells assessed as cell growth at 0.1 uM incubated for 48 hrs by sulforhodamine B assay relative to control; details: NCI-H226, 48 h, read-out: Activity
[19] = tested on: SK-MEL-5; test: Cytotoxicity against human SK-MEL-5 cells assessed as cell growth at 0.1 uM incubated for 48 hrs by sulforhodamine B assay relative to control; details: SK-MEL-5, 48 h, read-out: Activity
[20] = tested on: MOLT-4; test: Cytotoxicity against human MOLT4 cells assessed as cell growth at 10 uM incubated for 48 hrs by sulforhodamine B assay relative to control; details: MOLT-4, 48 h, read-out: Activity
[21] = tested on: HOP-92; test: Cytotoxicity against human HOP92 cells assessed as cell growth at 0.01 uM incubated for 48 hrs by sulforhodamine B assay relative to control; details: HOP-92, 48 h, read-out: Activity
[22] = tested on: EKVX; test: Cytotoxicity against human EKVX cells assessed as cell growth at 10 uM incubated for 48 hrs by sulforhodamine B assay relative to control; details: read-out: Activity
[23] = tested on: SNB-75; test: Cytotoxicity against human SNB75 cells assessed as cell growth at 100 uM incubated for 48 hrs by sulforhodamine B assay relative to control; details: SNB-75, 48 h, read-out: Activity
[24] = tested on: DU-145; test: Cytotoxicity against human DU145 cells assessed as cell growth at 10 uM incubated for 48 hrs by sulforhodamine B assay relative to control; details: DU-145, 48 h, read-out: Activity
[25] = tested on: OVCAR-5; test: Cytotoxicity against human OVCAR5 cells assessed as cell growth at 100 uM incubated for 48 hrs by sulforhodamine B assay relative to control; details: OVCAR-5, 48 h, read-out: Activity
[26] = tested on: PC-3; test: Cytotoxicity against human PC3 cells assessed as cell growth at 0.1 uM incubated for 48 hrs by sulforhodamine B assay relative to control; details: PC-3, 48 h, read-out: Activity
[27] = tested on: HCT-15; test: Cytotoxicity against human HCT15 cells incubated for 48 hrs by sulforhodamine B assay; details: HCT-15, 48 h
[28] = tested on: SF-295; test: Cytotoxicity against human SF295 cells assessed as cell growth at 1 uM incubated for 48 hrs by sulforhodamine B assay relative to control; details: SF-295, 48 h, read-out: Activity
[29] = tested on: NCI-H322M; test: Cytotoxicity against human NCI-H322M cells incubated for 48 hrs by sulforhodamine B assay
[30] = tested on: K562; test: Cytotoxicity against human K562 cells assessed as cell growth at 10 uM incubated for 48 hrs by sulforhodamine B assay relative to control; details: K562, 48 h, read-out: Activity
[31] = tested on: A549; test: Cytotoxicity against human A549/ATCC cells assessed as cell growth at 0.1 uM incubated for 48 hrs by sulforhodamine B assay relative to control; details: A549, 48 h, read-out: Activity
[32] = tested on: HOP-92; test: Cytotoxicity against human HOP92 cells assessed as cell growth at 10 uM incubated for 48 hrs by sulforhodamine B assay relative to control; details: HOP-92, 48 h, read-out: Activity
[33] = read-out: LC50 (the source's name)
[34] = read-out: pLC50 (the source's name) (converted)

COc1ccc(-c2nocc2-c2cc(OC)c(OC)c(OC)c2)cc1 gave a growth at 1 µM [1] of 37%, a growth at 1 µM [2] of 29% and a GI50 ([3]; read-out: GI50) of 0.0505 µM. The CC50 [3, 33] was over 100 µM, the TGI ([3]; read-out: TGI) was 13.1 µM and the GI50 ([3]; read-out: pGI50 (converted)) was 0.0501 µM. The CC50 [3, 34] was over 100 µM, the TGI ([3]; read-out: pTGI (converted)) was 13.2 µM and the growth at 100 µM [4] was -17%. For the same molecule, the growth at 0.01 µM [5] was 99%, the growth at 0.01 µM [6] was 92% and the growth at 10 µM [7] was 23%. It also gave a GI50 ([8]; read-out: GI50) of 0.173 µM, an LC50 (concentration killing 50% of cells) ([8]; read-out: LC50) of over 100 µM and a TGI ([8]; read-out: TGI) of 13.7 µM. The GI50 ([8]; read-out: pGI50 (converted)) was 0.174 µM, the LC50 (concentration killing 50% of cells) ([8]; read-out: pLC50 (converted)) was over 100 µM and the TGI ([8]; read-out: pTGI (converted)) was 13.8 µM. For the same molecule, the LC50 (concentration killing 50% of cells) ([9]; read-out: LC50) was over 100 µM, the TGI ([9]; read-out: TGI) was 45.5 µM and the LC50 (concentration killing 50% of cells) ([9]; read-out: pLC50 (converted)) was over 100 µM. The TGI ([9]; read-out: pTGI (converted)) was 45.7 µM, the growth at 100 µM [10] was 6% and the growth at 0.01 µM [11] was 100%. For the same molecule, the growth at 10 µM [12] was -6%, the growth at 1 µM [13] was 49% and the growth at 1 µM [14] was 37%. For the same molecule, the growth at 10 µM [15] was 1%, the GI50 ([16]; read-out: GI50) was 0.0772 µM and the CC50 [16, 33] was over 100 µM. The TGI ([16]; read-out: TGI) was over 100 µM, the GI50 ([16]; read-out: pGI50 (converted)) was 0.0776 µM and the CC50 [16, 34] was over 100 µM. For the same molecule, the TGI ([16]; read-out: pTGI) was over 100 µM, the growth at 1 µM [17] was 43% and the growth at 0.1 µM [18] was 90%. For the same molecule, the growth at 0.1 µM [19] was 41%, the growth at 10 µM [20] was 26% and the growth at 0.01 µM [21] was 98%. It also gave a growth at 10 µM [22] of 32%, a growth at 100 µM [23] of 9% and a growth at 10 µM [24] of 11%. For the same molecule, the growth at 100 µM [25] was 21%, the growth at 0.1 µM [26] was 40% and the GI50 ([27]; read-out: GI50) was 0.044 µM. The LC50 ([27]; read-out: LC50) was over 100 µM, the TGI ([27]; read-out: TGI) was over 100 µM and the GI50 ([27]; read-out: pGI50 (converted)) was 0.0437 µM. The LC50 ([27]; read-out: pLC50 (converted)) was over 100 µM, the TGI ([27]; read-out: pTGI) was over 100 µM and the growth at 1 µM [28] was 7%. The GI50 ([29]; read-out: GI50) was 0.737 µM, the LC50 ([29]; read-out: LC50) was over 100 µM and the TGI ([29]; read-out: TGI) was over 100 µM. It also gave a GI50 ([29]; read-out: pGI50 (converted)) of 0.741 µM, an LC50 ([29]; read-out: pLC50 (converted)) of over 100 µM and a TGI ([29]; read-out: pTGI) of over 100 µM. For the same molecule, the growth at 10 µM [30] was 9%, the growth at 0.1 µM [31] was 47% and the growth at 10 µM [32] was 49%.
